Test results reported in patent US12240812B2, “Compound for inhibiting PGE2/EP4 signaling transduction inhibiting, preparation method therefor, and medical uses thereof” (Keythera (Suzhou) Pharmaceuticals Co. Ltd., priority 2019, dated 2025).
Where two headings read alike, the source gives them in different places.

How the values were obtained:
[1] = Clearance assay in liver cells; format: in vitro ADME; conditions: cryopreserved mouse liver cells (hepatocytes); mouse (ICR/CD-1, male) cryopreserved liver cells, 0-120 min
Method: • Liver cell type: mouse • Product catalog: M00505 • Species: ICR/CD-1 • Sex: male • Source: BioreoclmationIVT Procedures: • 1. Preparation of working solution • a. 10 mM stock solutions of test compound and positive control were prepared in an appropriate solvent (DMSO). • b. 198 μL of 50% acetonitrile/50% water and 2 μL of 10 mM solution were mixed in a separate conical tube to obtain 100 μM test compound and positive control. • 2. Preparation of liver cells • a. The incubation medium and liver cell thawing medium were placed in a 37° C. water bath, and heated for at least 15 minutes before use. • b. A vial of cryopreserved liver cells was transferred from the storage, ensuring that the vial was kept at a low temperature until the thawing process was conducted. The cells were thawed by placing the vial in a 37° C. water bath and gently shaking the vial for 2 minutes. After completion of the thawing, the vial was sprayed with 70% ethanol and transferred to a biological safety cabinet. • c. The liver cells were transferred to a 50 mL conical tube containing the thawing medium by a large-bore pipette tip. The 50 mL conical tube was placed in a centrifuge and centrifuged at 100 g for 10 minutes. After completion of the centrifugation, the thawing medium was sucked out, and the liver cells were resuspended in enough medium to produce 1.5×10^6 cells/mL. • 3. Procedures of stability assay • a. 198 μL of liver cells were pipetted into each well of a 96-well uncoated plate. The plate was placed in an incubator to warm up the liver cells for 10 minutes. • b. 2 μL of 100 μM test compound or positive control was pipetted into each well of the 96-well uncoated plate to start the reaction. The plate was placed into the incubator at the set time point. • c. The contents of the wells were transferred in 25 μL of aliquots at the time points of 0, 15, 30, 60, 90 and 120 minutes. The aliquot was mixed with 6 volumes (150 μL) of acetonitrile containing internal standard IS (100 nM alprazolam, 200 nM caffeine, and 100 nM tolbutamide) to stop the reaction. The sample was vortex-mixed for 5 minutes, and centrifuged at 3220 g for 45 minutes. An aliquot of 100 μL of supernatant was diluted with 100 μL of ultrapure water, and the mixture was used for LC/MS/MS analysis. All incubations were performed in duplicate. • d. Data analysis
All calculations were performed using Microsoft Excel. The peak area was determined by the extracted ion chromatogram. The in vitro half-life (t½) of the parent compound was determined by the regression analysis of the compound disappearance percentage versus time curve.
The in vitro half-life (t½) was determined by the slope value k: t½=0.693/k
The in vitro t½ (in minutes) was converted to in vitro intrinsic clearance (CLint, in μL/min/0.5×10^6 cells) by using the following equation (average of repeated determinations): […]

[2] = tested on: PGE2/EP4 signal transduction in MCF7 cells; test: Determination of MCF7 cAMP (PGE2-stimulated, HTRF); format: cell-based; conditions: Homo sapiens
Method: • a) MCF7 cells (ATCC, 6000 cells/well/40 μl) were inoculated into a 384-well cell culture plate containing a medium (DMEM containing 10% FBS and 1×PS), and incubated overnight at 37° C. and 5% CO2. • b) The medium was removed, 40 μl/well of serum-free medium was added, and the cells were incubated at 37° C. and 5% CO2 for 5 hours. • c) The medium was replaced with 18 μL/well of HBSS buffer (Hepes 20 mM, 0.1% BSA, 500 μM IBMX). • d) The compound in DMSO was diluted (1/5 dilution, 9+0 dose). • e) 2 μL of the compound in d) was added to 98 μL of HBSS buffer. • f) 1 μL/well of the diluted compound in e) was added to the cells, with a final starting concentration of 1 μM, and the cells were incubated at 37° C. for 1 hour. • g) The cells were stimulated with 1 μL/well of PGE2 (10 mM DMSO stock solution) (final concentration: 10 nM, and DMSO final concentration: 0.2%), and incubated at 37° C. for 30 minutes. • h) After the incubation, 10 μL/well of cAMP-d2 and 10 μL/well of anti-cAMP were added, RT 1 h. • i) HTRF signals (665 nm/615 nm) were read on Envision. Data Analysis: • High control: 1 μM E7046 • Low control: DMSO • Background: 30 μL/well of lysis buffer+10 μL/well of anti-cAMP • Analytical data: original date—background Inhibition %: 100−100×(high control−analytical data)/(high control−low control)

CT-26 colorectal tumor [3] = test: Inhibitory effect of compound 6 on CT-26 colorectal tumor in mouse; format: in vivo; conditions: for effect on the growth of CT-26 tumor: administered alone, different doses (compound 6: 10, 30 or 150 mg/kg p.o. once a day); for effect on the body weight of mouse: CT-26 colorectal cancer model, FIG. 2
Method: Efficacy study on allograft tumor: each 6-week-old female BALB/c mouse was subcutaneously inoculated with 1×10^6 CT26 cancer cells (National Experimental Cell Resource Sharing Service Platform, Resource Number 3111CCCC). When the tumor reached about 60 to 80 mm^3, the tumor-bearing mice were randomly grouped to the vehicle group or treatment group. Compound 6 was administered orally (p.o.) in a 0.5% MC suspension at a dose of 10, 30 or 150 mg/kg, once a day. The mice in the vehicle group were orally administered with distilled water every day, and the administration time was the same as that of the compound 6 group. The tumor volume and body weight were recorded 2 to 3 times a week.

EMT-6 breast tumor = test: Compound 6 and anti-PD-1 antibody alone or in combination on EMT-6 breast tumor in mouse; format: in vivo
Method: (§1) Efficacy study on allograft tumor: each 6-week-old female BALB/c mouse was subcutaneously inoculated with 5×10^5 EMT-6 cancer cells. When the tumor reached about 60 to 80 mm^3, the tumor-bearing mice were randomly grouped to the vehicle group or treatment group. When administered alone or in combination, compound 6 was administered orally (p.o.) in a 0.5% MC suspension at a dose of 30 mg/kg, once a day. When administered alone or in combination, anti-PD-1 antibody (Invivomab anti-mouse PD-1 (CD279), Abcam) was administered intraperitoneally at a dose of 20 mg/kg on the first administration, and at a dose of 10 mg/kg on the following administrations once every 5 days. The mice in the vehicle group and PD-1 antibody-administered alone group were orally administered with distilled water every day, and the administration time was the same as that of the compound 6 group. The tumor volume and body weight were recorded 2 to 3 times a week.

CT-26 colorectal tumor [4] = test: Compound 6 and anti-PD-1 antibody alone or in combination on CT-26 colorectal tumor in mouse; format: in vivo
Method: as §1, with “1×10^6 CT26” for “5×10^5 EMT-6”, “30 or 150” for “30”, “5 mg/kg,” for “20 mg/kg on the first administration, and at a dose of 10 mg/kg on the following administrations”, “4 days, for a total of 3 times (Q4D×3).” for “5 days.”

[5] = MCF7 cells, 10 nM PGE2 stimulation, cAMP HTRF, read-out: MCF7 cAMP IC50
[6] = BALB/c mice, CT26 allograft, FIG. 1

Compound | hepatocyte CLint at 1 µM [1] | IC50 [2, 5] | further results
O=C(NC1(C23CC(C(=O)O)(C2)C3)CC1)c1cc(Cl)cc2ccn(Cc3ccc(-c4ccccc4)cn3)c12 [Compound 7, 3-(1-(5-Chloro-1-((5-phenylpyridin-2-yl)methyl)-1H-indole-7-carboxamido)cyclopropyl)bicyclo[1.1.1]pentane-1-carboxylic acid] | 34 µL/min/1e6 cells | 0.13 nM | –
C[C@H](NC(=O)c1c(C(F)F)nn(C)c1Oc1cccc(C(F)(F)F)c1)c1ccc(C(=O)O)cc1 [Compound E7046, (S)-4-(1-(3-(difluoromethyl)-1-methyl-5-(3-(trifluoromethyl)phenoxy)-1H-pyrazole-4-carboxamido)ethyl)benzoic acid, reference compound] | 20.1 µL/min/1e6 cells | – | effect on the growth of CT-26 tumor (CT-26 colorectal tumor [3]; [6]): significant inhibitory effect; effect on the body weight of mouse (CT-26 colorectal tumor [3]): no significant effect; IC50 ([2]; MCF7, read-out: MCF7 cAMP IC50): 11.2 nM
O=C(NC1(C23CC(C(=O)O)(C2)C3)CC1)c1cncc2ccn(Cc3cc4ccccc4o3)c12 [Compound 25, 3-(1-(1-(benzofuran-2-ylmethyl)-1H-pyrrolo[3,2-c]pyridine-7-carboxamido)cyclopropyl)bicyclo[1.1.1]pentane-1-carboxylic acid] | 1.35 µL/min/1e6 cells | 1.5 nM | –
O=C(O)c1ccc(C2(NC(=O)c3cccc4ccn(Cc5ccc(C(F)(F)F)cc5)c34)CC2)cc1 [MF-766, 4-(1-(1-(4-(trifluoromethyl)benzyl)-1H-indole-7-carboxamido)cyclopropyl)benzoic acid, reference compound] | 12.5 µL/min/1e6 cells | – | IC50 ([2]; MCF7, read-out: MCF7 cAMP IC50): 1.3 nM

Second part, led by results:

hepatocyte CLint at 1 µM [1] | IC50 [2, 5] | Compound | further results
19 µL/min/1e6 cells | 0.89 nM | O=C(NC1(C23CC(C(=O)O)(C2)C3)CC1)c1cccc2ccn(Cc3ccc(-c4ccccc4)cn3)c12 [Compound 2, 3-(1-(1-((5-Phenylpyridin-2-yl)methyl)-1H-indole-7-carboxamido)cyclopropyl)bicyclo[1.1.1]pentane-1-carboxylic acid] | –
1.93 µL/min/1e6 cells | 0.9 nM | O=C(NC1(C23CC(C(=O)O)(C2)C3)CC1)c1cccc2ccn(Cc3cc4cc(F)ccc4o3)c12 [Compound 21, 3-(1-(1-((5-Fluorobenzofuran-2-yl)methyl)-1H-indole-7-carboxamido)cyclopropyl)bicyclo[1.1.1]pentane-1-carboxylic acid] | –
20 µL/min/1e6 cells | 1.1 nM | O=C(NC1(C23CCC(C(=O)O)(CC2)CC3)CC1)c1cccc2ccn(Cc3ccc(C(F)(F)F)cc3)c12 [Compound 9, 4-(1-(1-(4-(Trifluoromethyl)benzyl)-1H-indole-7-carboxamido)cyclopropyl)bicyclo[2.2.2]octane-1-carboxylic acid] | –
2.9 µL/min/1e6 cells | 1.1 nM | O=C(NC1(C23CC(C(=O)O)(C2)C3)CC1)c1cccc2ccn(Cc3cc4ccccc4o3)c12 [Compound 6, 3-(1-(1-(Benzofuran-2-ylmethyl)-1H-indole-7-carboxamido)cyclopropyl)bicyclo[1.1.1]pentane-1-carboxylic acid] | effect on the growth of CT-26 tumor (CT-26 colorectal tumor [3]; [6]): significant inhibitory effect; effect on CT-26 tumor growth compared with E7046 (CT-26 colorectal tumor [3]; BALB/c mice, CT26 allograft, at the same dose, FIG. 1): significantly better than E7046; effect on the body weight of mouse (CT-26 colorectal tumor [3]): no significant effect; effect on the body weight of mouse (EMT-6 breast tumor; EMT-6 model, compound 6 alone or in combination with anti-PD-1 antibody, FIG. 6): no significant effect; effect on the EMT-6 breast tumor in mouse (EMT-6 breast tumor; compound 6 30 mg/kg p.o. once a day, alone or in combination with anti-PD-1 antibody (20 mg/kg first, then 10 mg/kg i.p. every 5 days), FIG. 5): good inhibitory effect; effect on the body weight of mouse (CT-26 colorectal tumor [4]; CT-26 model, compound 6 alone or in combination with anti-PD-1 antibody, FIG. 4): no significant effect; effect on the growth of CT-26 tumor in mouse (CT-26 colorectal tumor [4]; compound 6 30 or 150 mg/kg p.o. once a day, alone or in combination with anti-PD-1 antibody 5 mg/kg i.p. Q4Dx3, FIG. 3): good inhibitory effect
7.1 µL/min/1e6 cells | 2.4 nM | O=C(NC1(C23CC(C(=O)O)(C2)C3)CC1)c1cccc2ccn(Cc3ccc(C(F)(F)F)cc3)c12 [Compound 1, 3-(1-(1-(4-(Trifluoromethyl)benzyl)-1H-indole-7-carboxamido)cyclopropyl)bicyclo[1.1.1]pentane-1-carboxylic acid] | –
